Assay results: publication PMC8306139, “A Novel Dialkylamino-Functionalized Chalcone, DML6, Inhibits Cervical Cancer Cell Proliferation, In Vitro, via Induction of Oxidative Stress, Intrinsic Apoptosis and Mitotic Catastrophe” (Molecules, 2021)
Where two headings read alike, the source gives them in different places.

Legend:
Bak = assay: Western blot, Bak; format: cell-based; conditions: OV2008, 5 and 20 μM, 24 h, vs vehicle
Method: The OV2008 cells were lysed to obtain total cellular protein fractions using Mammalian Protein Extraction Reagent (Catalog # 78501, M-PER™, Thermo Fisher Scientific, Waltham, MA, USA). The cells were seeded in […] at a density of 1 × 10^6 and incubated with 5 or 20 µM of DML6 or 1 µM of doxorubicin (Catalog # T1-2-, TargetMol, Boston, MA, USA) (a positive control) for 24 h. The following day, the cells were washed with ice-cold PBS, scraped using a cell scrapper and collected in Eppendorf tubes. The tubes were centrifuged at 1500 RPM at 4 °C for 5 min. The solution was discarded and replaced with 70 µL of the cell lysis buffer (M-PER reagent, 100 mM Sodium Orthovanadate (NaOV) at a final concentration of 2.5 mM) and a 100X protease inhibitor cocktail (Catalog # P8340, Sigma-Aldrich, St. Louis, MO, USA, final concentration of 1X, containing of aprotinin, bestatin, E-64, leupeptin and pepstatin). Thirty minutes later, the resulting solution was centrifuged at 10,000 RPM at 4 °C for 5 min and the supernatant was collected. The protein concentration of the cell extracts was determined using the bicinchoninic acid (BCA) (Catalog # 786-570, G-Biosciences, Saint Louis, MO, USA) quantification assay. […] Finally, the amount of protein in each blot was quantified using the Image J software (NIH, Bethesda, MD, USA). All data were calculated as a ratio to β-actin.

OV2008 cells = assay: IncuCyte Cytotox green assay; format: cell-based; conditions: OV2008, up to 72 h, vs vehicle
Description: The IncuCyte cytotox green reagent (Catalog # 4633, Essence BioScience, Ann Arbour, MI, USA) was used for real time quantification of dead OV2008 cells as previously described. This dye will only penetrate into cells with non-intact membranes (dead or non-viable cells). As the cells die, the increase in cell membrane permeability allows the reagent to enter the nucleus and bind to DNA, which emits green fluorescence at an excitation maximum of 491 nm and emission maximum of 509 nm. OV2008 cells were seeded (100 µL/well) in a 96-well plate and incubated overnight. The following day, DML6 (0.1–100 μM) was prepared at 3X the final assay concentrations in diluted IncuCyte™ Cytotox Reagent and added to each well (50 µL/well). The cells were immediately placed in the IncuCyte® S3 Live-Cell Analysis System (Essen BioScience, Ann Arbor, MI, USA) and images were taken every 2 h up to 72 h and analyzed using the integrated IncuCyte S3 software version 2020B (Essen BioScience, Ann Arbor, MI, USA).

[1] = test system: Chinese hamster ovary cells (CHO)
Method: (§1) The concentration of the tested compounds that produced a 50% inhibition of cell growth (IC50) was determined.
(§2) A panel of cancer cell lines, including cervical (OV2008 and HeLa), breast (MDA-MB-231), lung (A549) and colon (LOVO), prostate (DU145), human embryonic kidney cells (HEK293), human colon fibroblast cells (CRL1459), and Chinese hamster ovary cells (CHO), were grown as adherent monolayers in flasks containing Dulbecco’s modified Eagle medium (DMEM), supplemented with 10% fetal bovine serum (FBS) and 1% penicillin and streptomycin, in a humidified incubator with 5% CO2 at 37 °C.
(§3) The cells were seeded evenly (180 μL/well) in 96-well plates, at a density of 3000–5000 cells/well and incubated with serial dilutions of the compounds ranging from 0.1 to 100 μM. […] Cytation™ 5 and Cytation™ 7 multi-mode detector (Bio Tek Instruments, Winooski, VT, USA) was used to determine the absorbance readings at a wavelength of 570 nm. The IC50 values were determined based on 3 separate experiments, with each experiment carried out in triplicate. The selectivity of the compounds was determined by comparing their IC50 values in cervical cancer compared to the normal epithelial cell lines, HEK293, CHO, and CRL1459.

HEK293 = assay: MTT assay, HEK293; format: cell-based, human; conditions: read-out: IC50 ± SD Kidney HEK293
Method: as §1, §2
(§4) The cells were seeded evenly (180 μL/well) in 96-well plates, at a density of 3000–5000 cells/well and incubated with serial dilutions of the compounds ranging from 0.1 to 100 μM. The MTT dye (4 mg/ml) was added after 72 h of incubation and incubated with the cells for an additional 4 h at 37 °C, allowing the viable cells to biotransform the yellow-colored MTT into dark-blue formazan crystals. Following incubation, the medium was aspirated, and the formazan crystals were dissolved by adding 100 μL of DMSO to each well. Cytation™ 5 and Cytation™ 7 multi-mode detector (Bio Tek Instruments, Winooski, VT, USA) was used to determine the absorbance readings at a wavelength of 570 nm. The IC50 values were determined based on 3 separate experiments, with each experiment carried out in triplicate.

[2] = test system: human colon fibroblast cells (CRL1459); assay: MTT assay, CRL1459; format: cell-based; conditions: 72 h
Method: as §1, §2, §3

MDA-MB-231 = assay: MTT assay, MDA-MB-231; format: cell-based; conditions: Homo sapiens, MDA-MB-231, 72 h, read-out: IC50 ± SD Breast MDA-MB-231
Method: as §1, §2, §4

**Q.** What does the source list for CN(C)c1ccc(/C=C/C(=O)c2ccc(Cl)cc2Cl)cc1 [DML6, (E)-1-[2,4-dichlorophenyl]-3-(4-(dimethylamino)phenyl)prop-2-en-1-one]?
**A.** expression of the pro-apoptotic protein Bak (Bak): significantly increased the expression; Cytotox green fluorescent signal (dead cells) over time (OV2008 cells): increased significantly; cytotoxicity in normal cells, CHO [1]: did not produce significant cytotoxicity; IC50 (HEK293; 72 h): 70 ± 42.4 µM; IC50 (HEK293; Homo sapiens, HEK293, 72 h): > 65 µM; cytotoxicity in normal cells, CRL1459 [2]: did not produce significant cytotoxicity; IC50 (MDA-MB-231): 91.9 ± 11.5 µM
